The target of one assay is DGKζ (Homo sapiens (Human), UniProt Q13574). The assay is described as follows: Biochemical DGK IC50 assay, DGKζ ADP-Glo assay. The settings on record: 0.5 nM enzyme, 140 μM ATP, 80 μM DAG; read-out: DGKζ ADP-Glo assay IC50. Put shortly: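 Full-length human DGKζ, His-TEV tagged and purified from baculovirus-infected Sf9 cells, assayed by ADP-Glo with DAG/PS lipid micelle substrate prepared in 25 mM HEPES pH 7.0 with octyl glucoside. Final compound concentrations spanned 1.55–10000 nM or 23.3–150000 nM.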
(In ADP-Glo the light output rises with the ADP produced.)

A further assay has as its target DGKα (Homo sapiens (Human), UniProt P23743). As to the kind of experiment: Biochemical DGK IC50 assay, DGKα ADP-Glo assay. The settings on record: 7.5 nM enzyme, 140 μM ATP, 80 μM DAG. Put shortly:
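ADP-Glo read-out with full-length DGKα on DAG/PS lipid micelle substrate in 25 mM HEPES pH 7.0, 0.5 mM EDTA, 160 mM octyl β-D-glucopyranoside. Compound final concentrations spanned 1.55˜10000 nM or 23.3˜150000 nM.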

A value given as a limit tells only on which side of the number the result lay.

DGKα, sequence (P23743 whole entry): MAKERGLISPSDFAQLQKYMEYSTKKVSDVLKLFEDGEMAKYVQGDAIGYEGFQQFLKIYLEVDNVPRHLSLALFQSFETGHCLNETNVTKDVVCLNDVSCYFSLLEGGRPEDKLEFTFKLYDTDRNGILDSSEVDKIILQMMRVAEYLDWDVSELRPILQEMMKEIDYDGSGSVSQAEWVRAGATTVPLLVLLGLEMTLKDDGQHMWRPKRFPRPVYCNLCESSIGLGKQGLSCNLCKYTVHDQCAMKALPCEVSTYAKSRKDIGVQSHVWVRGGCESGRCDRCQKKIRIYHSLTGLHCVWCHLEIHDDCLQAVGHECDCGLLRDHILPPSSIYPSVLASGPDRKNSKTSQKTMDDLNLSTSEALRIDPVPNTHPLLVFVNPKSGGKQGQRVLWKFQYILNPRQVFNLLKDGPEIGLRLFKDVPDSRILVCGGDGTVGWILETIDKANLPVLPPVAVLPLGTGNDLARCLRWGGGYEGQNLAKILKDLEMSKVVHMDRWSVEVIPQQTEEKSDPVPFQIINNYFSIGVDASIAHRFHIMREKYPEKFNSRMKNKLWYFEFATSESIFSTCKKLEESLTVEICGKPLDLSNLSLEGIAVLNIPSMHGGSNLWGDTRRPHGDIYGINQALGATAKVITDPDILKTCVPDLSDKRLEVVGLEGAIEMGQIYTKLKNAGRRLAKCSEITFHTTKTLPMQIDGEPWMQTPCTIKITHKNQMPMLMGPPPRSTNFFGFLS
DGKζ, sequence (Q13574 other isoform, or with tags, fused parts or gaps): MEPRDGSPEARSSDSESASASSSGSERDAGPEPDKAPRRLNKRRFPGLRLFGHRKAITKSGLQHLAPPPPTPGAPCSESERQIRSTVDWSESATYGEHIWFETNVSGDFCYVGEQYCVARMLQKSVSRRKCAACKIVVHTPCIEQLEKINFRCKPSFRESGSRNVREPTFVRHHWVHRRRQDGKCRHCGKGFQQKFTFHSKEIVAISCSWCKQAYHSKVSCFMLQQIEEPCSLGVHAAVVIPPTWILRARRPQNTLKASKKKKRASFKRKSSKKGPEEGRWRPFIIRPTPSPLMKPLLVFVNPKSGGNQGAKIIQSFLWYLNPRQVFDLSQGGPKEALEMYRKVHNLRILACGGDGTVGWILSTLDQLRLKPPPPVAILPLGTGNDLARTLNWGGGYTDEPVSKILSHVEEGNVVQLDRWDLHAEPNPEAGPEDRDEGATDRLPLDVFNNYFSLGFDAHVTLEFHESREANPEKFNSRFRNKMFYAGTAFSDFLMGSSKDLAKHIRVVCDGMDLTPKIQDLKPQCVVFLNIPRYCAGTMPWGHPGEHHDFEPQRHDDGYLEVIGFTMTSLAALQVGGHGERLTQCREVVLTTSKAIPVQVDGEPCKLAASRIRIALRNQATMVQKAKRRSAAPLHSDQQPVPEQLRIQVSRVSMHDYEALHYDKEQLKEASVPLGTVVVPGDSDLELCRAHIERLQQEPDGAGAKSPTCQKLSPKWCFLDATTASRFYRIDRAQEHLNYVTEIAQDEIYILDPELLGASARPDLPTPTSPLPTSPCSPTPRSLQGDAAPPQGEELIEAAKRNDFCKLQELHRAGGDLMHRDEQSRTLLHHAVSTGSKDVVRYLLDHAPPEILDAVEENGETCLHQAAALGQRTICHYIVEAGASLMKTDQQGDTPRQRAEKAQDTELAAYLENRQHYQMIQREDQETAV

In the case of `COC(C)c1cc(F)ccc1C(C)N1C[C@H](C)N(c2cc(=O)n(C)c3cn(CC#N)nc23)C[C@H]1C` (single isomer, unassigned) [Compound A286a], the IC50 on DGKζ was 2610 nM; on DGKα, greater than 10000 nM.
For `CC#CCn1cc2c(n1)c(N1C[C@@H](CC)N(C(C)c3ccc(C(F)(F)F)cc3F)C[C@@H]1CC)cc(=O)n2C` (single isomer, unassigned) [Compound A334a], the IC50 on DGKζ is 978 nM; against DGKα it was 308 nM.
As for `CC[C@H]1CN(C(C)c2ccc(F)cc2)[C@H](CC)CN1c1cc(=O)n(C)c2cn(CC#N)nc12` (stereo partly shown) [Compound A67], the IC50 at DGKζ turned out to be 130 nM; at DGKα, 10 nM.
The corresponding values for `CC[C@H]1CN(C(C)c2ccc3nccnc3c2)[C@H](CC)CN1c1cc(=O)n(CC2CC2)c2cn(CC#N)nc12` (stereo partly shown) [Compound A167] are 1020 nM and greater than 10000 nM.
For `CCCn1c(C(C)N2C[C@H](CC)N(c3cc(=O)n(C)c4cn(CC#N)nc34)C[C@H]2CC)nc2ccccc21` (stereo partly drawn) [Compound A192, 2-(7-((2S,5R)-2,5-diethyl-4-(1-(1-propyl-1H-benzo[d]imidazol-2-yl)ethyl)piperazin-1-yl)-4-methyl-5-oxo-4,5-dihydro-2H-pyrazolo[4,3-b]pyridin-2-yl)acetonitrile], the half-maximal inhibitory concentration (IC50) at DGKζ was 59 nM; against DGKα it was greater than 10000 nM.
In the case of `CC(c1ccc2nccnc2c1)N1C[C@H](C)N(c2cc(=O)n(C)c3cn(C)nc23)C[C@H]1C` (stereo partly shown) [Compound A3], the values for the concentration for half-maximal inhibition (IC50) at DGKζ and at DGKα were 3800 nM and 3200 nM, respectively.
For the molecule `CC[C@H]1CN(C(C)c2ccc(C)cc2)[C@H](CC)CN1c1cc(=O)n(C)c2cn(CC#N)nc12` (stereo partly drawn) [Compound A127, 2-(7-((2S,5R)-2,5-diethyl-4-(1-(p-tolyl)ethyl)piperazin-1-yl)-4-methyl-5-oxo-4,5-dihydro-2H-pyrazolo[4,3-b]pyridin-2-yl)acetonitrile], the IC50 at DGKζ was determined as 260 nM; on DGKα it was 56 nM.
Regarding `CC[C@H]1CN(C(C)c2ccc(F)cc2C(=O)N(C)C)[C@H](CC)CN1c1cc(=O)n(C)c2cn(CC#N)nc12` (stereo partly shown) [Compound A292], the IC50 was 1910 nM at DGKζ and greater than 150000 nM against DGKα.
As for `Cc1nc2cc(C(C)N3C[C@H](C)N(c4cc(=O)n(C)c5cn(CC#N)nc45)C[C@H]3C)ccc2nc1O` (stereo partly drawn) [Compound A316, 2-(7-((2S,5R)-4-(1-(2-hydroxy-3-methylquinoxalin-6-yl)ethyl)-2,5-dimethylpiperazin-1-yl)-4-methyl-5-oxo-4,5-dihydro-2H-pyrazolo[4,3-b]pyridin-2-yl)acetonitrile], the half-maximal inhibitory concentration (IC50) at DGKζ was greater than 10000 nM; on DGKα, 67000 nM.
The corresponding values for `CC[C@H]1CN(C(C)c2ncc(C(F)(F)F)cc2F)[C@H](CC)CN1c1cc(=O)n(C)c2cn(CC#N)nc12` (single isomer, unassigned) [Compound A354b] are 260 nM and 130 nM.
For `CC(c1ccc2ncc(C(F)F)nc2c1)N1C[C@H](C)N(c2cc(=O)n(C)c3cn(CC#N)nc23)C[C@H]1C` (stereo partly drawn) [Compound A311, 2-(7-((2S,5R)-4-(1-(3-(difluoromethyl)quinoxalin-6-yl)ethyl)-2,5-dimethylpiperazin-1-yl)-4-methyl-5-oxo-4,5-dihydro-2H-pyrazolo[4,3-b]pyridin-2-yl)acetonitrile], the IC50 at DGKζ came to 41 nM; at DGKα, 6630 nM.
For `COc1cc(F)c(C(C)N2C[C@H](C)N(c3cc(=O)n(C)c4cn(CC#N)nc34)C[C@H]2C)c(F)c1` (stereo partly shown) [Compound A32], the IC50 amounted to 230 nM on DGKζ and 1200 nM on DGKα.
In the case of `C=C(C)n1cc2c(n1)c(N1C[C@@H](CC)N(Cc3ccc(OC(F)(F)F)cc3)C[C@@H]1CC)cc(=O)n2C` [Compound A27], the IC50 on DGKζ is greater than 10000 nM; against DGKα, 4.3 nM.
For `CC(c1ccc2nccnc2c1)N1C[C@H](C)N(c2cc(=O)n(C)c3c[nH]nc23)C[C@H]1C` (stereo partly drawn) [Compound A1, 7-((2S,5R)-2,5-dimethyl-4-(1-(quinoxalin-6-yl)ethyl)piperazin-1-yl)-4-methyl-2,4-dihydro-5H-pyrazolo[4,3-b]pyridin-5-one], the 50% inhibitory concentration (IC50) was greater than 150000 nM at DGKζ and 1800 nM against DGKα.
The corresponding values for `CC[C@H]1CN(C(C)c2ccc(F)cc2OC(F)F)[C@H](CC)CN1c1cc(=O)n(C)c2cn(CC#N)nc12` (single isomer, unassigned) [Compound A171a] are 65 nM and 8340 nM.
Take `CC[C@H]1CN(C(C)c2ccc(C)cc2C(F)(F)F)[C@H](CC)CN1c1cc(=O)n(C)c2cn(CC#N)nc12` (single isomer, unassigned) [Compound A115b]: the 50% inhibitory concentration (IC50) came out at 378 nM at DGKζ and 105000 nM on DGKα.
For `CC[C@H]1CN(C(C)c2nc3ccc(C(F)(F)F)cc3n2CC)[C@H](CC)CN1c1cc(=O)n(C)c2cn(CC#N)nc12` (single isomer, unassigned) [Compound A204a], the half-inhibitory concentration (IC50) is 3290 nM on DGKζ and greater than 10000 nM at DGKα.
For `CC[C@H]1CN(C(C)c2ccc(C)c(OC)n2)[C@H](CC)CN1c1cc(=O)n(C)c2cn(CC#N)nc12` (stereo partly shown) [Compound A364], the results for the half-maximal inhibitory concentration (IC50) on DGKζ and against DGKα were 288 nM and 2520 nM, respectively.
Take `CC#CCn1cc2c(n1)c(N1C[C@@H](CC)N(C(C)c3ccc4c(c3)OC(F)(F)O4)C[C@@H]1C)cc(=O)n2C` (single isomer, unassigned) [Compound A392a]: the IC50 on DGKζ was 1480 nM; on DGKα, 1320 nM.
For `CC#CCn1cc2c(n1)c(N1C[C@@H](CC)N(C(C)c3cnc4ccccc4n3)C[C@@H]1C)cc(=O)n2C` (single isomer, unassigned) [Compound A394a], the half-inhibitory concentration (IC50) stood at 5400 nM on DGKζ and 454 nM against DGKα.
In the same order, the values of `CC[C@@H]1CN(c2cc(=O)n(C)c3cn(CC#N)nc23)[C@@H](CC)CN1C(=O)c1ccc(C2CC2)cc1` [Compound A369] are 1090 nM and 294 nM.
As for `CC[C@H]1CN(C(C)c2ccc(F)c(F)c2C(F)(F)F)[C@H](CC)CN1c1cc(=O)n(C)c2cn(CC#N)nc12` (stereo partly shown) [Compound A288], the values for the IC50 at DGKζ and at DGKα were 263 nM and 3400 nM, respectively.
Consider `CC[C@H]1CN(C(C)c2ccc(C(F)(F)F)cc2F)[C@H](CC)CN1c1cc(=O)n(C)c2cn(CC#N)nc12` (stereo partly drawn) [Compound A73, 2-(7-((2S,5R)-2,5-diethyl-4-(1-(2-fluoro-4-(trifluoromethyl)phenyl)ethyl)piperazin-1-yl)-4-methyl-5-oxo-4,5-dihydro-2H-pyrazolo[4,3-b]pyridin-2-yl)acetonitrile], for which the concentration for half-maximal inhibition (IC50) at DGKζ and against DGKα was 630 nM throughout.
For the molecule `COC[C@H]1CN(C(C)c2ccc3nccnc3c2)[C@H](C)CN1c1cc(=O)n(C)c2cn(CC#N)nc12` (stereo partly drawn) [Compound A143, 2-(7-((2R,5R)-2-(methoxymethyl)-5-methyl-4-(1-(quinoxalin-6-yl)ethyl)piperazin-1-yl)-4-methyl-5-oxo-4,5-dihydro-2H-pyrazolo[4,3-b]pyridin-2-yl)acetonitrile], the IC50 on DGKζ is 253 nM; on DGKα it was greater than 10000 nM.
As for `CC[C@H]1CN(C(C)c2cc(C(F)(F)F)nn2CC)[C@H](CC)CN1c1cc(=O)n(C)c2cn(CC#N)nc12` (stereo partly shown) [Compound A210], the figures for the concentration for half-maximal inhibition (IC50) on DGKζ and against DGKα were 369 nM and 11200 nM, respectively.
The corresponding values for `CC[C@H]1CN(C(C)c2ccc(CN3CCOCC3)cc2)[C@H](CC)CN1c1cc(=O)n(C)c2cn(CC#N)nc12` (single isomer, unassigned) [Compound A383a] are 158 nM and 245 nM.

The term IC50 denotes the concentration needed to halve the response being measured.
